# Experimental data reported in article PMC5410289, “Stable H3 peptide was delivered by gold nanorods to inhibit LSD1 activation and induce human mesenchymal stem cells differentiation” (Oncotarget, 2017).
# Test system: human BMSCs
# Assay: RT-PCR of stemness, differentiation and hepatic marker genes in human BMSCs
# Format: cell-based
# Conditions: human MSCs, GAPDH as normalization, treated 2, 7 and 14 days, combination effect seen during 7 days
# Procedure: The human BMSCs were treated with PBS as control, AuNRs, AuNRs-SP nanocomplex, HGF alone and AuNRs-SP nanocomplex+HGF respectively for 2 days, 7 days and 14 days (Figure 7). Consequently, the expression of stemness gene Oct4, differentiation gene Sox17 and two hepatic marker genes, AFP and ck19 in the human MSCs were analyzed by RT-PCR. Comparing with PBS-treated group and AuNRs-treated group, human MSCs were induced to differentiate by AuNRs-SP nanocomplex with the decreased Oct4 and increased Sox17 (Figure 7A and 7B).
# After human BMSCs were treated with PBS, AuNRs, HGF, AuNRs-SP and AuNRs-SP+HGF for 14 days, total RNA was extracted using TRIzol (Invitrogen, Carlsbad, CA, USA) and was quantitated by Nano Drop 2000. 2 μg total RNA was reverse transcribed to cDNA using a reverse transcriptase kit (Takara, Japan) according to the manufacturer's instructions. The mRNA levels of the target genes were quantified by RT-PCR, using GAPDH as normalization. Primers used in this study: Oct4 forward 5′-GACAACAATGAGAACCTTCAG-3′ and reverse 5′-CTGGCGCCGGTTACAGAACCA-3′; Sox17 forward 5′-GAGCCAAGGGCGAGTCCCGTA-3′ and reverse 5′-CCTTCCACGACTTGCCCAGCA-3′; AFP forward 5′-AGCGAGGAGAAATGGTCCGG-3′ and reverse 5′-GGA CAT CTT CAC CAT GTG-3′; Ck19 forward 5′-GCACTACAGCCACTACTACAC-3′ and reverse 5′-CTC ATG CGC AGA GCC TGT-3′.
substance,measurement,value
HGF: hepatocyte growth factor,expression of hepatic marker gene AFP (mRNA),could not change the expression of AFP and ck19 until 14 days
same,expression of hepatic marker gene ck19 (mRNA),could not change the expression of AFP and ck19 until 14 days
